Reference: PubChem BioAssay AID1963851 (Molecular Pharmacology Branch, DTP, NCI, 2024)

System: 188146-221-R-J1-PDC complex spheroid viability
Experiment: Anticancer human tumor 188146-221-R-J1-PDC patient-derived colon adenocarcinoma cell line growth inhibition [POLQ]
Conditions: for IC50: curve of first compound; for viability, T/C: stronger effect = lower value
Method: Multicellular complex tumor spheroid response to Polymerase (POL) inhibitors (novobiocin, ART-558, RP6685) in combination with a variety of drugs and investigational agents in selected tumor cell lines
The POL inhibitors (novobiocin, ART-558, and RP6685) were evaluated both individually and in combination with standard of care and investigational anticancer small molecules within a complex spheroid model of solid tumors. . Complex spheroids include a stromal component modeled by human endothelial cells (HUVEC) and fibroblasts modeled by human mesenchymal stem cells (MSCs). The concentration ranges selected for each drug and investigational agent were based upon clinically achievable concentrations if the clinical Cmax of the agent was known.
Compounds. The drugs and investigational agents: novobiocin (NSC847541), ART-558 (NSC835418), RP-6685 (NSC848927), peposertib (NSC802822), ceralasertib (NSC780249), elimusertib (NSC800525), camonsertib (NSC841442), AZD-1390 (NSC803789), olaparib (NSC753686), talazoparib (NSC767125), rucaparib (NSC756644), sotorasib (NSC818433), MRTX-1133 (NSC836407), SN-38 (NSC673596), topotecan (NSC609699), epotoside (NSC141540), doxorubicin (NSC123127), gemcitabine (NSC613327), 5-fluorouracil (NSC19893), paclitaxel (NSC125973), vemurafenib (NSC761431), MSA-2 (NSC828583), SN-011 (NSC837082), adavosertib (NSC754352), prexasertib (NSC758257), carboplatin (NSC241240) and oxaliplatin (NSC266046), were obtained from the National Cancer Institute (NCI) Developmental Therapeutics Program Chemical Repository (21). The FDA-approved anticancer drug set is available from the Developmental Therapeutics Program at https://dtp.cancer.gov/organization/dscb/obtaining/. […] The stock solutions were prepared in dimethyl sulfoxide (DMSO, Sigma-Aldrich, St. Louis, MO, cat. D2650), except for the platinum compounds which were prepared in saline (Quality Biological, Gaithersburg, MD, cat. 114-055-101), at 800-fold the tested concentration and stored at -70 degrees C prior to their use. All drugs and investigational agents were tested over a range starting from a high concentration at or near the clinical Cmax and decreasing in half-log increments. If the clinical Cmax for an agent had not been determined, the highest concentration tested was 10 microM, except for SN-38, which was tested at a high concentration of 1 microM.
Cell Culture. All cells were maintained in an incubator at 37 degrees C and 5% CO2 with 95% humidity. The PDC lines were cultured according to standard operating procedures established by the NCI PDMR (https://pdmr.cancer.gov). Table 3 of the manuscript, lists the cell lines along with the number of the three cell types plated to form the mct-spheroids and media for tumor cell growth. After thawing, all PDC lines, except 997537-175-T-J1-PDC and 415267-285-R-J2-PDC, were cultured in Matrigel-coated flasks prepared with a working solution of 1X Ham's F-12 nutrient mix, without supplementation (Thermo Fisher Scientific, cat. 11765054), 100 U/mL penicillin-streptomycin (Thermo Fisher Scientific, cat. 15140122), and 2.5% Matrigel (Corning Inc., Corning, NY, cat. 354248) for the first three passages. The two PDC lines 997537-175-T-J1-PDC and 415267-285-R-J2-PDC were cultured on uncoated flasks. The 857933-349-R-J2-PDC line was cultured in 6C/Colon 1B media containing advanced DMEM/F-12 (Thermo Fisher Scientific, cat. 12634028), 10 mM HEPES (Thermo Fisher Scientific, cat. 15630080), 1X GlutaMAX supplement (Thermo Fisher Scientific, cat. 35050061), 0.1 mg/mL primocin (InvivoGen, San Diego, CA, cat. ant-pm-2), 10% defined fetal bovine serum, heat inactivated (HyClone Laboratories Inc., Logan, UT, cat. SH30070.03HI), 50% L-WRN conditioned media (ATCC, cat. CRL-3276), 1.25 mM N-Acetyl-L-cysteine (Sigma-Aldrich, cat. A9165), 10 mM nicotinamide (Sigma-Aldrich, cat. N0636), 1X B-27 supplement (Thermo Fisher Scientific, cat. 17504044), 1X N-2 supplement (Thermo Fisher Scientific, cat. […]
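Further: spheroids exposed to compounds for seven days.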
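Wherever viability, T/C is given: 100% = DMSO vehicle control viability.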

SMILES: CC(=O)O[C@H]1C(=O)[C@@]2(C)[C@H]([C@H](OC(=O)c3ccccc3)[C@]3(O)C[C@H](OC(=O)[C@H](O)[C@@H](NC(=O)c4ccccc4)c4ccccc4)C(C)=C1C3(C)C)[C@]1(OC(C)=O)CO[C@@H]1C[C@@H]2O + Cc1cccc(N(C)C(=O)C2C(O)CCN2c2nc(C)cc(C(F)(F)F)c2C#N)c1
- IC50 (second compound 0.0316 µM): 14.8 nM
- IC50 (second compound 0.1 µM): 13.4 nM
- IC50 (second compound 0.316 µM): 11.3 nM
- IC50 (second compound 1 µM): 13.5 nM
- IC50 (second compound 3.16 µM): 9.98 nM
- IC50 (second compound 10 µM): 9.95 nM
- viability, T/C (second compound 0.0316 µM, first compound 0.00949 µM): 69%
- viability, T/C (second compound 0.0316 µM, first compound 0.03 µM): 20.6%
- viability, T/C (second compound 0.0316 µM, first compound 0.0949 µM): 11.7%
- viability, T/C (second compound 0.0316 µM, first compound 0.3 µM): 12.8%
- viability, T/C (second compound 0.0316 µM, first compound 0.949 µM): 13.3%
- viability, T/C (second compound 0.0316 µM, first compound 3 µM): 13.3%
- viability, T/C (second compound 0.1 µM, first compound 0.00949 µM): 61.8%
- viability, T/C (second compound 0.1 µM, first compound 0.03 µM): 23.3%
- viability, T/C (second compound 0.1 µM, first compound 0.0949 µM): 12%
- viability, T/C (second compound 0.1 µM, first compound 0.3 µM): 11.6%
- viability, T/C (second compound 0.1 µM, first compound 0.949 µM): 12.8%
- viability, T/C (second compound 0.1 µM, first compound 3 µM): 12.5%
- viability, T/C (second compound 0.316 µM, first compound 0.00949 µM): 55%
- viability, T/C (second compound 0.316 µM, first compound 0.03 µM): 22.4%
- viability, T/C (second compound 0.316 µM, first compound 0.0949 µM): 13.6%
- viability, T/C (second compound 0.316 µM, first compound 0.3 µM): 12.6%
- viability, T/C (second compound 0.316 µM, first compound 0.949 µM): 13.3%
- viability, T/C (second compound 0.316 µM, first compound 3 µM): 11.6%
- viability, T/C (second compound 1 µM, first compound 0.00949 µM): 63.3%
- viability, T/C (second compound 1 µM, first compound 0.03 µM): 19.4%
- viability, T/C (second compound 1 µM, first compound 0.0949 µM): 13.4%
- viability, T/C (second compound 1 µM, first compound 0.3 µM): 11%
- viability, T/C (second compound 1 µM, first compound 0.949 µM): 13%
- viability, T/C (second compound 1 µM, first compound 3 µM): 13.8%
- viability, T/C (second compound 3.16 µM, first compound 0.00949 µM): 51.5%
- viability, T/C (second compound 3.16 µM, first compound 0.03 µM): 17.5%
- viability, T/C (second compound 3.16 µM, first compound 0.0949 µM): 14.1%
- viability, T/C (second compound 3.16 µM, first compound 0.3 µM): 12.1%
- viability, T/C (second compound 3.16 µM, first compound 0.949 µM): 13.2%
- viability, T/C (second compound 3.16 µM, first compound 3 µM): 16.4%
- viability, T/C (second compound 10 µM, first compound 0.00949 µM): 51.4%
- viability, T/C (second compound 10 µM, first compound 0.03 µM): 17.4%
- viability, T/C (second compound 10 µM, first compound 0.0949 µM): 14.1%
- viability, T/C (second compound 10 µM, first compound 0.3 µM): 14.8%
- viability, T/C (second compound 10 µM, first compound 0.949 µM): 14.6%
- viability, T/C (second compound 10 µM, first compound 3 µM): 14.5%

SMILES: CC[C@@]1(O)C(=O)OCc2c1cc1n(c2=O)Cc2cc3c(CN(C)C)c(O)ccc3nc2-1 + Cc1cccc(N(C)C(=O)C2C(O)CCN2c2nc(C)cc(C(F)(F)F)c2C#N)c1
- IC50 (second compound 0.0316 µM): > 100 nM
- IC50 (second compound 0.1 µM): > 100 nM
- IC50 (second compound 0.316 µM): > 100 nM
- IC50 (second compound 1 µM): > 100 nM
- IC50 (second compound 3.16 µM): > 100 nM
- IC50 (second compound 10 µM): > 100 nM
- viability, T/C (second compound 0.0316 µM, first compound 0.000316 µM): 110%
- viability, T/C (second compound 0.0316 µM, first compound 0.001 µM): 95.1%
- viability, T/C (second compound 0.0316 µM, first compound 0.00316 µM): 106%
- viability, T/C (second compound 0.0316 µM, first compound 0.01 µM): 89.6%
- viability, T/C (second compound 0.0316 µM, first compound 0.0316 µM): 98.1%
- viability, T/C (second compound 0.0316 µM, first compound 0.1 µM): 68.7%
- viability, T/C (second compound 0.1 µM, first compound 0.000316 µM): 112%
- viability, T/C (second compound 0.1 µM, first compound 0.001 µM): 99.6%
- viability, T/C (second compound 0.1 µM, first compound 0.00316 µM): 96%
- viability, T/C (second compound 0.1 µM, first compound 0.01 µM): 107%
- viability, T/C (second compound 0.1 µM, first compound 0.0316 µM): 99.1%
- viability, T/C (second compound 0.1 µM, first compound 0.1 µM): 77.5%
- viability, T/C (second compound 0.316 µM, first compound 0.000316 µM): 109%
- viability, T/C (second compound 0.316 µM, first compound 0.001 µM): 91.2%
- viability, T/C (second compound 0.316 µM, first compound 0.00316 µM): 92.4%
- viability, T/C (second compound 0.316 µM, first compound 0.01 µM): 87%
- viability, T/C (second compound 0.316 µM, first compound 0.0316 µM): 96.5%
- viability, T/C (second compound 0.316 µM, first compound 0.1 µM): 71.3%
- viability, T/C (second compound 1 µM, first compound 0.000316 µM): 93.4%
- viability, T/C (second compound 1 µM, first compound 0.001 µM): 99%
- viability, T/C (second compound 1 µM, first compound 0.00316 µM): 101%
- viability, T/C (second compound 1 µM, first compound 0.01 µM): 104%
- viability, T/C (second compound 1 µM, first compound 0.0316 µM): 97.9%
- viability, T/C (second compound 1 µM, first compound 0.1 µM): 75.9%
- viability, T/C (second compound 3.16 µM, first compound 0.000316 µM): 97.2%
- viability, T/C (second compound 3.16 µM, first compound 0.001 µM): 100%
- viability, T/C (second compound 3.16 µM, first compound 0.00316 µM): 94.6%
- viability, T/C (second compound 3.16 µM, first compound 0.01 µM): 91.8%
- viability, T/C (second compound 3.16 µM, first compound 0.0316 µM): 92.2%
- viability, T/C (second compound 3.16 µM, first compound 0.1 µM): 81%
- viability, T/C (second compound 10 µM, first compound 0.000316 µM): 100%
- viability, T/C (second compound 10 µM, first compound 0.001 µM): 99.6%
- viability, T/C (second compound 10 µM, first compound 0.00316 µM): 92.4%
- viability, T/C (second compound 10 µM, first compound 0.01 µM): 84.2%
- viability, T/C (second compound 10 µM, first compound 0.0316 µM): 78%
- viability, T/C (second compound 10 µM, first compound 0.1 µM): 54.6%
